We go through 20 molecules from ChEMBL document CHEMBL1140907, “Derivatives of 5-nitro-furan-2-carboxylic acid carbamoylmethyl ester inhibit RNase H activity associated with HIV-1 reverse transcriptase” (J Med Chem, 2009).

Series [1] deals with Human immunodeficiency virus type 1 reverse transcriptase (Human immunodeficiency virus 1) (UniProt Q72547). The series can be described thus: (§1) Inhibition of HIV1 LAI clade B reverse transcriptase RNase H activity by real time monitoring assay.
Series [2] can be described thus: Cytotoxicity against IL2 and anti-CD3-stimulated CD4 expressing primary T cells at 25 to 30 uM by MTT assay. Conditions: t-cell. The series is classed as cell-based.
The subject of series [3] is Escherichia coli. The series can be described thus: Inhibition of Escherichia coli RNase H by real time monitoring assay.
Series [4] is described as follows: Inhibition of murine leukemia virus reverse transcriptase by real time monitoring assay.
The target of series [5] is T1, Ribonuclease H1 (Homo sapiens) (UniProt O60930).
T1 sequence (whole entry): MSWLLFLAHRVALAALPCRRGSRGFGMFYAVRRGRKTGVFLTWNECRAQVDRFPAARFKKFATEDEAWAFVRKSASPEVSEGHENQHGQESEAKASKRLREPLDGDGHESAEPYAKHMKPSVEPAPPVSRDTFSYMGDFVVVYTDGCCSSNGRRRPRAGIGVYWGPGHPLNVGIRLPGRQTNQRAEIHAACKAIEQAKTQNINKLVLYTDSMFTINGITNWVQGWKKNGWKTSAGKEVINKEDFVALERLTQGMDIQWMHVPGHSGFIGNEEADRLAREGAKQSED
The series can be described thus: Inhibition of human RNase H1 by real time monitoring assay.

The target of series [6] is Human immunodeficiency virus type 1 integrase (Human immunodeficiency virus 1) (UniProt Q7ZJM1). The series can be described thus: Inhibition of HIV1 integrase by real time monitoring assay.
Series [7] has as its target T2, Human immunodeficiency virus type 1 reverse transcriptase (Human immunodeficiency virus 1, UniProt Q72547). The series can be described thus: Inhibition of HIV1 LAI clade C 93IN101 reverse transcriptase RNase H activity by real time monitoring assay.
Series [8] in a line: Cytotoxicity against T cells at >25 uM by MTT assay. Type of series: cell-based. Conditions: t-cell.
In series [9] the target is T2, Human immunodeficiency virus type 1 reverse transcriptase. The series can be described thus: Inhibition of HIV1 LAI CRF01 A_E s93JP-NH1 reverse transcriptase RNase H activity by real time monitoring assay. On the set-up: species or system 93JP-NH1.
The nature of series [10]: Cytotoxicity against CD4-CXCR4 expressing human NP2 cells at >25 uM by MTT assay. Type of series: cell-based.
The target in series [11] is T2, Human immunodeficiency virus type 1 reverse transcriptase. The description is as §1.
The subject of series [12] is Human immunodeficiency virus 1. The series can be described thus: Inhibition of HIV1 NL4-3 replication in CD4 expressing human T cells assessed as decrease in p24 antigen production at 25 uM after 4 days by ELISA. The series is classed as functional, organism-based. As to conditions: T-cell.
Series [13] relates to Human immunodeficiency virus 1. The series can be described thus: Inhibition of HIV1 NL4-3 replication in CD4-CXCR4 expressing human NP2 cells assessed as decrease in p24 antigen production after 4 days by ELISA. As to conditions: Human immunodeficiency virus 1, NL4-3, NP2, 96 h.

The structures appear in SMILES notation. Activity calls are given as the source filed them. The rule behind the calls is not given here.

Chain of Human immunodeficiency virus type 1 integrase (Human immunodeficiency virus 1) (Q7ZJM1 as listed by the source): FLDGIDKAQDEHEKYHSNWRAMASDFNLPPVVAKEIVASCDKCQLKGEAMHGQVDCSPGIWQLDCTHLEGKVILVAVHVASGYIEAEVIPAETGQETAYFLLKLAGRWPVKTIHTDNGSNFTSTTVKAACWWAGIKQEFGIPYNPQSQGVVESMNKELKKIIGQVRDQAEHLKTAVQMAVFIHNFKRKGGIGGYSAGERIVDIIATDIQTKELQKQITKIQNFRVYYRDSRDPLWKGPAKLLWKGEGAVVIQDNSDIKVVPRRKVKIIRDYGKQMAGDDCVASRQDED

Consider `Cc1ccc(NC(=O)COC(=O)c2ccc([N+](=O)[O-])o2)cc1`, for which the outcome in series [1] was inactive. `O=C(COC(=O)c1ccc([N+](=O)[O-])o1)Nc1ncc(C(F)(F)F)cc1Cl`: in series [1], the outcome was Active. As to `O=C(COC(=O)c1ccc([N+](=O)[O-])o1)Nc1nc2ccccc2s1`, the result in series [1] was Active. As for `O=C(COC(=O)c1ccc([N+](=O)[O-])o1)NC12CC3CC(CC(C3)C1)C2`, the Activity in series [2], in series [8] and in series [10] was 50% throughout. Moreover, the result in [3], in [5] and in [6] was inactive. Moreover, the IC50 in series [4] turned out to be 8.4 µM; in series [7] it was 26.5 µM; in series [9], 3.8 µM; in series [11], 29.6 µM. For the molecule `O=C(OCC(=O)N(CC1CCCO1)c1nc(-c2ccc(Br)cc2)cs1)c1ccc([N+](=O)[O-])o1` (centres undefined), the result in series [12] was Active. Besides, the Activity in series [2], in series [8] and in series [10] was 50% throughout. The outcome in series [3] and in series [6] was inactive. The IC50 in series [4] was 8.6 µM; in series [13], 22.7 µM; in series [7], 32.2 µM; in [9], 2.6 µM; in [11] it was 26.7 µM. Consider `O=C(COC(=O)c1ccc([N+](=O)[O-])o1)Nc1ccc(F)cc1F`, for which the outcome in series [1] was inactive. For the molecule `Cc1ccc(NC(=O)COC(=O)c2ccc([N+](=O)[O-])o2)cc1S(=O)(=O)N1CCCCCC1`, the outcome in series [1] was Active. In the case of `CCOC(=O)c1c(-c2cccs2)csc1NC(=O)COC(=O)c1ccc([N+](=O)[O-])o1`, the outcome in [1] was inactive.

Regarding `O=C(COC(=O)c1cccnc1Cl)NC12CC3CC(CC(C3)C1)C2`, in [1], the outcome was inactive.

As to `CN(C)S(=O)(=O)c1cccc(NC(=O)COC(=O)c2ccc([N+](=O)[O-])o2)c1`, the outcome in [1] was Active. With `O=C(COC(=O)c1ccc[nH]1)NC12CC3CC(CC(C3)C1)C2`, in [1], the outcome was inactive. Take `O=C(COC(=O)c1cncc(Br)c1)NC12CC3CC(CC(C3)C1)C2`: the outcome in series [1] was inactive.

Consider `CCOC(=O)c1c(NC(=O)COC(=O)c2ccc([N+](=O)[O-])o2)sc(C)c1C`, for which, in [1], the outcome was inactive. For the molecule `CCOC(=O)c1sc(N(Cc2ccccc2)C(=O)COC(=O)c2ccc([N+](=O)[O-])o2)nc1C`, the result in [1] was inactive. As to `O=C(COC(=O)c1ccc([N+](=O)[O-])o1)Nc1ccccc1F`, the outcome in [1] was inactive.

Take `CCOc1cc(N2CCOCC2)cc(OCC)c1NC(=O)COC(=O)c1ccc([N+](=O)[O-])o1`: the result in series [1] was inactive. Regarding `O=C(COC(=O)c1ccc([N+](=O)[O-])o1)Nc1cc(C(F)(F)F)cc(C(F)(F)F)c1`, the result in series [1] was Active. Turning to `O=C(COC(=O)c1ccccn1)NC12CC3CC(CC(C3)C1)C2`, in [1], the result was inactive.

Consider `O=C1CCC(C(=O)OCC(=O)NC23CC4CC(CC(C4)C2)C3)N1` (centres undefined), for which the outcome in [1] was inactive.

For `O=C(COC(=O)c1ccc([N+](=O)[O-])o1)Nc1ccc(Cl)c(S(=O)(=O)N2CCOCC2)c1`, the result in series [1] was Active.
